Measured values from patent publication US11925667B2, “Engineered therapeutic probiotic system and method” (priority 2018, dated 2024).

Assays:
[1] = test system: SMC (esophageal smooth muscle primary cells); assay: Growth inhibition assay (MTT), SMC; type: cell-based, human; settings: purified YebF-I1 fusion protein and sinigrin, in words
Excerpt: (§1) Cell culture and toxicity assay. While HCT116 human colorectal carcinoma cells (ATCC, Manassas, USA), LoVo human colorectal adenocarcinoma cells (ATCC), AGS human gastric adenocarcinoma cells (ATCC), MCF7 human breast adenocarcinoma cells (ATCC), human esophageal smooth muscle primary cells (SMCs) (Cell Biologics, Chicago, USA) and CT26 mouse colorectal carcinoma cells (ATCC) are used according to the claimed invention, other illustrative cell lines may similarly be utilized. Cells are cleared of mycoplasma contamination prior to use using Mycoalert™ PLUS mycoplasma detection kit (Lonza). HCT116 cells are cultured in McCoy's 5A medium, LoVo and AGS cells in Ham's F12 medium, MCF7 cells in DMEM medium, CT26 cells in RPMI medium, and SMCs in the specific medium kit purchased from Cell Biologics. […]
(§2) Cellular viability is measured at 3 hours, 24 hours and 72 hours post-treatment using the MTT assay (Sigma, St. Louis, USA). […] The MTT readout is fitted to a dose-response curve to determine the GI50 value (Eq. 2). Absorbance (570 nm)=Bottom+(Top−Bottom)/(1+10^(([Inhibitor]−Log 10 GI50))) (Eq. 2) HlpA binding assay. […] The cancer 394 cells are washed twice with 1×PBS and measured for DAPI and RFP emission. The fluorescence emission is compared on the linear standard curve of stained cells against the average fluorescence emission to determine the binding ratio of E. coli to cancer cells. […]

[2] = test system: AGS gastric adenocarcinoma cells; assay: Growth inhibition assay (MTT), AGS; type: cell-based, human
Excerpt: as §1, §2

[3] = test system: LoVo colorectal adenocarcinoma cells; assay: Growth inhibition assay (MTT), LoVo; type: cell-based, human
Excerpt: as §1, §2

[4] = test system: CT26 colorectal carcinoma cells; assay: Growth inhibition assay (MTT), CT26; type: cell-based, mouse
Excerpt: as §1, §2

[5] = test system: HCT116 colorectal carcinoma cells; assay: Growth inhibition assay (MTT), HCT116; type: cell-based, human
Excerpt: as §1, §2

[6] = test system: MCF7 breast adenocarcinoma cells; assay: Growth inhibition assay (MTT), MCF7; type: cell-based, human
Excerpt: as §1, §2

LoVo = assay: HlpA binding assay (GFP/DAPI ratio), LoVo; settings: LoVo human colorectal cell line
Method: (§3) Cellular viability is measured at 3 hours, 24 hours and 72 hours post-treatment using the MTT assay (Sigma, St. Louis, USA). The inhibitory activity of myrosinase-converted AITC is performed by incubating cancer cells grown to 60% confluency with 0.1 μM of purified secreted I1 myrosinase with 0˜10 mM sinigrin at 37° C. and 5% CO2 and was sampled at 3 hours, 24 hours and 72 hours post-treatment. The MTT readout is fitted to a dose-response curve to determine the GI50 value (Eq. 2). Absorbance (570 nm)=Bottom+(Top−Bottom)/(1+10^(([Inhibitor]−Log 10 GI50))) (Eq. 2) HlpA binding assay. The HlpA gene sequence is optimized for E. coli expression, and the gene is cloned into a pET28b vector with an N-terminal GFP. GFP-HlpA and GFP are expressed using similar purification protocols, described above. […] Treated and adherent cells are washed with sterile PBS twice before staining with DAPI. The GFP/DAPI ratio is used to evaluate the binding ratio of protein binding per cell (Eq. 3). […] The cancer 394 cells are washed twice with 1×PBS and measured for DAPI and RFP emission. The fluorescence emission is compared on the linear standard curve of stained cells against the average fluorescence emission to determine the binding ratio of E. coli to cancer cells.

HCT116 = assay: HlpA binding assay (GFP/DAPI ratio), HCT116; settings: HCT116 human colorectal cell line
Method: as §3

CT26 = assay: HlpA binding assay (GFP/DAPI ratio), CT26; settings: CT26 murine colorectal cell line
Method: as §3

smooth muscle cells = assay: HlpA binding assay (GFP/DAPI ratio), smooth muscle cells; design: species or system human
Method: as §3

[7] = test system: gastric (AGS) cancer cell line; assay: HlpA binding assay (GFP/DAPI ratio), AGS; design: species or system human
Method: as §3

[8] = test system: breast (MCF7) cancer cell line; assay: HlpA binding assay (GFP/DAPI ratio), MCF7; design: species or system human
Method: as §3

[9] = 0.1 μM purified secreted I1 myrosinase with sinigrin
[10] = Homo sapiens, 0.1 μM purified secreted I1 myrosinase with 0~10 mM sinigrin, read-out: GI 50 value

## C=CCN=C=S [YebF-I1-converted AITC, allyl isothiocyanate]
[1]
  Inhibition of primary smooth muscle cell line: no inhibition
[2]; [9]
  Complete inhibition: <24 h
[2]; [10]
  GI50: 26 µM
[3]; [9]
  Complete inhibition: <21 h
[3]; [10]
  GI50: 232 µM
[4]; [9]
  Complete inhibition: <24 h
[4]; Mus musculus, 0.1 μM purified secreted I1 myrosinase with 0~10 mM sinigrin, read-out: GI 50 value
  GI50: 46 µM
[5]; [9]
  Complete inhibition: <24 h
[5]; Homo sapiens, HCT-116, 0.1 μM purified secreted I1 myrosinase with 0~10 mM sinigrin, read-out: GI 50 value
  GI50: 155 µM
[6]; [9]
  Complete inhibition: <24 h
[6]; [10]
  GI50: 139 µM

## GFP-HlpA: purified N-terminal GFP-tagged Histone-like protein A (HlpA) from Streptococcus gallolyticus
LoVo
  binding affinity: sub-micromolar
HCT116
  binding affinity: sub-micromolar
CT26
  binding affinity: sub-micromolar
Smooth muscle cells
  weaker binding affinity relative to colorectal cell lines: 6 fold
[7]
  binding: No binding
[8]
  binding: No binding
